A value given as a limit tells only on which side of the number the result lay.

One experiment has as its target human recombinant FAAH (Homo sapiens (Human), UniProt O00519). Briefly: In vitro inhibition of FAAH activity (fluorescent inhibitor screening kit, AMC arachidonoyl amide). The format is biochemical. As to conditions: human recombinant FAAH; read-out: Inhibition on FAAH activity (IC50). The procedure, abridged: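 Fluorogenic kit assay: AMC arachidonoyl amide is cleaved by human recombinant FAAH, read at 340-360/450-465 nm. Percent inhibition versus non-treated control; IC50 values derived from multiple compound concentrations where tested.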

For another experiment, the target named is human recombinant MAGL (Homo sapiens (Human), UniProt Q99685). Briefly: In vitro inhibition of MAGL activity (inhibitor screening kit, 4-nitrophenylacetate). The format is biochemical. As to conditions: human recombinant MAGL. An outline of the steps: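 Colorimetric kit assay: recombinant human MAGL hydrolyses 4-nitrophenylacetate to 4-nitrophenol, read by absorbance at 405-412 nm. Inhibition given as percentage of signal in treated versus untreated MAGL control.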
Sequence of human recombinant MAGL (Q99685 whole entry): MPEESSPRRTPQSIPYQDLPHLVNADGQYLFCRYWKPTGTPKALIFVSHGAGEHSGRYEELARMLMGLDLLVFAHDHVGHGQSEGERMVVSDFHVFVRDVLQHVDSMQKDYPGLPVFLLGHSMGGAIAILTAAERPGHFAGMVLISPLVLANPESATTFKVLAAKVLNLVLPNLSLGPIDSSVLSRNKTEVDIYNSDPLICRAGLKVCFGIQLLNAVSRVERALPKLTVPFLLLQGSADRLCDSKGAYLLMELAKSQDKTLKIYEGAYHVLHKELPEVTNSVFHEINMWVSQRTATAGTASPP

Sequence of human recombinant FAAH (O00519 whole entry): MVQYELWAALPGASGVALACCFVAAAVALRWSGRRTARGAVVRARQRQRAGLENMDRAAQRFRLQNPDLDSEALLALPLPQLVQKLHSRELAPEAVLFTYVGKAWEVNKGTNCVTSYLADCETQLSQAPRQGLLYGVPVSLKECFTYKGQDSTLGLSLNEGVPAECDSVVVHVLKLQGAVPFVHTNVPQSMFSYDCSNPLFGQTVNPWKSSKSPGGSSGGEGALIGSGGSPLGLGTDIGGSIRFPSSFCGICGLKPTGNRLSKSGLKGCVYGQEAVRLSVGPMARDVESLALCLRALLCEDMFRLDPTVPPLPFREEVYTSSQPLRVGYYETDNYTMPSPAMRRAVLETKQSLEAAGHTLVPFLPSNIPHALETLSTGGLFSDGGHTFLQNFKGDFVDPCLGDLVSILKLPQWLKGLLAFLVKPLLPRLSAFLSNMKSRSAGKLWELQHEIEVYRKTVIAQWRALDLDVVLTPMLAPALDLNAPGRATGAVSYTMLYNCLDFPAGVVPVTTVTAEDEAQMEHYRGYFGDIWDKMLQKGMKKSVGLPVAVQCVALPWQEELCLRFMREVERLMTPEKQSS

Take `COc1cc(OC(=O)NCc2ccccc2)cc(-c2cncc(-c3nnco3)c2)c1` [Example 176, 3-(5-(1,3,4-oxadiazol-2-yl)pyridin-3-yl)-5-methoxyphenyl benzylcarbamate]: the IC50 at human recombinant FAAH is more than 1000 nM; at human recombinant MAGL it was more than 10000 nM.

Regarding `COc1cc(OC(=O)NC2CCCC2)cc(-c2cncc(-c3nnco3)c2)c1` [Example 177, 3-(5-(1,3,4-oxadiazol-2-yl)pyridin-3-yl)-5-methoxyphenyl cyclopentylcarbamate], the IC50 on human recombinant FAAH was 100 to 1000 nM; at human recombinant MAGL it was more than 10000 nM.

Regarding `COc1cc(OC(=O)NC2CCCCC2)cc(-c2cncc(-c3nnco3)c2)c1` [Example 178, 3-(5-(1,3,4-oxadiazol-2-yl)pyridin-3-yl)-5-methoxyphenyl cyclohexylcarbamate], the values for the IC50 on human recombinant FAAH and on human recombinant MAGL were approximately 100 nM and more than 10000 nM, respectively.

Consider `CCCCCCCCNC(=O)Oc1ccc(N(C)C)c(-c2cncc(-c3nnco3)c2)c1` [Example 180, 3-(5-(1,3,4-oxadiazol-2-yl)pyridin-3-yl)-4-(dimethylamino)phenyl octylcarbamate], for which the IC50 on human recombinant FAAH was 10 to 100 nM; at human recombinant MAGL, more than 10000 nM.

With `CN(C)c1ccc(OC(=O)NCC2CCCCC2)cc1-c1cncc(-c2nnco2)c1` [Example 181, 3-(5-(1,3,4-oxadiazol-2-yl)pyridin-3-yl)-4-(dimethylamino)phenyl (cyclohexylmethyl)carbamate], the figures for the IC50 at human recombinant FAAH and on human recombinant MAGL were approximately 1000 nM and more than 10000 nM, respectively.

With `CN(C)c1ccc(OC(=O)NCc2ccccc2)cc1-c1cncc(-c2nnco2)c1` [Example 182, 3-(5-(1,3,4-oxadiazol-2-yl)pyridin-3-yl)-4-(dimethylamino)phenyl benzylcarbamate], the IC50 is more than 1000 nM at human recombinant FAAH and more than 10000 nM at human recombinant MAGL.

`CN(C)c1ccc(OC(=O)NC2CCCCC2)cc1-c1cncc(-c2nnco2)c1` [Example 184, 3-(5-(1,3,4-oxadiazol-2-yl)pyridin-3-yl)-4-(dimethylamino)phenyl cyclohexylcarbamate]: the IC50 at human recombinant FAAH was more than 1000 nM; on human recombinant MAGL, more than 10000 nM.

`CN(C)c1ccc(OC(=O)NC2CCCCCC2)cc1-c1cncc(-c2nnco2)c1` [Example 185, 3-(5-(1,3,4-oxadiazol-2-yl)pyridin-3-yl)-4-(dimethylamino)phenyl cycloheptylcarbamate]: the IC50 on human recombinant FAAH was 100 to 1000 nM; on human recombinant MAGL it was more than 10000 nM.

On to `CSc1ccc(OC(=O)NCC2CCCCC2)cc1-c1cncc(-c2nnco2)c1` [Example 187, 3-(5-(1,3,4-oxadiazol-2-yl)pyridin-3-yl)-4-(methylthio)phenyl (cyclohexylmethyl) carbamate], for which the IC50 on human recombinant FAAH was 100 to 1000 nM; at human recombinant MAGL, more than 10000 nM.

For the molecule `CSc1ccc(OC(=O)NCc2ccccc2)cc1-c1cncc(-c2nnco2)c1` [Example 188, 3-(5-(1,3,4-oxadiazol-2-yl)pyridin-3-yl)-4-(methylthio)phenyl benzylcarbamate], the IC50 at human recombinant FAAH is more than 1000 nM; on human recombinant MAGL, more than 10000 nM.

In the case of `CSc1ccc(OC(=O)NC2CCCC2)cc1-c1cncc(-c2nnco2)c1` [Example 189, 3-(5-(1,3,4-oxadiazol-2-yl)pyridin-3-yl)-4-(methylthio)phenyl cyclopentylcarbamate], the IC50 at human recombinant FAAH was 100 to 1000 nM; on human recombinant MAGL, more than 10000 nM.

With `CSc1ccc(OC(=O)NC2CCCCC2)cc1-c1cncc(-c2nnco2)c1` [Example 190, 3-(5-(1,3,4-oxadiazol-2-yl)pyridin-3-yl)-4-(methylthio)phenyl cyclohexylcarbamate], the figures for the IC50 on human recombinant FAAH and on human recombinant MAGL were 100 to 1000 nM and more than 10000 nM, respectively.

`O=C(NC1CCCCC1)Oc1ccc(F)c(-c2cncc(-c3nnco3)c2)c1` [Example 192, 3-(5-(1,3,4-oxadiazol-2-yl)pyridin-3-yl)-4-fluorophenyl cyclohexylcarbamate]: the figures for the IC50 at human recombinant FAAH and on human recombinant MAGL were 10 to 100 nM and more than 10000 nM, respectively.

`CC1CCC(NC(=O)Oc2ccc(F)c(-c3cncc(-c4nnco4)c3)c2)CC1` (centres unmarked) [Example 193, 3-(5-(1,3,4-oxadiazol-2-yl)pyridin-3-yl)-4-fluorophenyl (4-methylcyclohexyl)carbamate]: the IC50 at human recombinant FAAH is 10 to 100 nM; on human recombinant MAGL it was more than 10000 nM.

Regarding `CCCCCCCCNC(=O)Oc1cc(F)cc(-c2cncc(-c3nnco3)c2)c1` [Example 195, 3-(5-(1,3,4-oxadiazol-2-yl)pyridin-3-yl)-5-fluorophenyl octylcarbamate], the IC50 on human recombinant FAAH was 1 to 10 nM; at human recombinant MAGL, approximately 1000 nM.

With `O=C(NCc1ccccc1)Oc1cc(F)cc(-c2cncc(-c3nnco3)c2)c1` [Example 196, 3-(5-(1,3,4-oxadiazol-2-yl)pyridin-3-yl)-5-fluorophenyl benzylcarbamate], the IC50 on human recombinant FAAH was more than 1000 nM; at human recombinant MAGL, approximately 10000 nM.

For `O=C(NC1CCCCC1)Oc1cc(F)cc(-c2cncc(-c3nnco3)c2)c1` [Example 197, 3-(5-(1,3,4-oxadiazol-2-yl)pyridin-3-yl)-5-fluorophenyl cyclohexylcarbamate], the IC50 is 100 to 1000 nM at human recombinant FAAH and more than 10000 nM on human recombinant MAGL.

With `CCCCCCCCNC(=O)Oc1ccc(OC(F)(F)F)c(-c2cncc(-c3nnco3)c2)c1` [Example 199, 3-(5-(1,3,4-oxadiazol-2-yl)pyridin-3-yl)-4-(trifluoromethoxy)phenyl octylcarbamate], the IC50 at human recombinant FAAH lay within 10 to 100 nM; at human recombinant MAGL it was 1000 to 10000 nM.

`O=C(NC1CCCCC1)Oc1ccc(OC(F)(F)F)c(-c2cncc(-c3nnco3)c2)c1` [Example 200, 3-(5-(1,3,4-oxadiazol-2-yl)pyridin-3-yl)-4-(trifluoromethoxy)phenyl cyclohexylcarbamate]: the IC50 on human recombinant FAAH was 100 to 1000 nM; at human recombinant MAGL, more than 10000 nM.

`CC1CCC(NC(=O)Oc2ccc(OC(F)(F)F)c(-c3cncc(-c4nnco4)c3)c2)CC1` (centres unmarked) [Example 201]: the IC50 is 100 to 1000 nM on human recombinant FAAH and more than 1000 nM on human recombinant MAGL.

For the molecule `O=C(NC1CCCCCC1)Oc1ccc(OC(F)(F)F)c(-c2cncc(-c3nnco3)c2)c1` [Example 202, 3-(5-(1,3,4-oxadiazol-2-yl)pyridin-3-yl)-4-(trifluoromethoxy)phenyl cycloheptylcarbamate], the results for the IC50 at human recombinant FAAH and on human recombinant MAGL were 100 to 1000 nM and more than 10000 nM, respectively.

As for `O=C(Nc1ccccc1)Oc1ccc(OC(F)(F)F)c(-c2cncc(-c3nnco3)c2)c1` [Example 203, 3-(5-(1,3,4-oxadiazol-2-yl)pyridin-3-yl)-4-(trifluoromethoxy)phenyl phenylcarbamate], the IC50 at human recombinant FAAH was more than 1000 nM; at human recombinant MAGL, more than 10000 nM.

As for `O=C(NCC1CCCCC1)Oc1cccc(-c2cncc(-c3ncno3)c2)c1` [Example 204, 3-(5-(1,2,4-oxadiazol-5-yl)pyridin-3-yl)phenyl (cyclohexylmethyl)carbamate], the IC50 at human recombinant FAAH is 10 to 100 nM; on human recombinant MAGL, more than 10000 nM.

As to `O=C(NC1CCCCC1)Oc1cccc(-c2cncc(-c3ncno3)c2)c1` [Example 205, 3-(5-(1,2,4-oxadiazol-5-yl)pyridin-3-yl)phenyl cyclohexylcarbamate], the IC50 on human recombinant FAAH is 10 to 100 nM; on human recombinant MAGL, more than 10000 nM.

`O=C(NC1CCCCCC1)Oc1cccc(-c2cncc(-c3ncno3)c2)c1` [Example 206, 3-(5-(1,2,4-oxadiazol-5-yl)pyridin-3-yl)phenyl cycloheptylcarbamate]: the values for the IC50 at human recombinant FAAH and on human recombinant MAGL were 10 to 100 nM and more than 10000 nM, respectively.

Regarding `CCCCCCCCNC(=O)Oc1cccc(-c2cncc(-c3nncs3)c2)c1` [Example 207, 3-(5-(1,3,4-thiadiazol-2-yl)pyridin-3-yl)phenyl octylcarbamate], the IC50 is 1 to 10 nM at human recombinant FAAH and approximately 10000 nM on human recombinant MAGL.

For `O=C(NCC1CCCCC1)Oc1cccc(-c2cncc(-c3nncs3)c2)c1` [Example 208, 3-(5-(1,3,4-thiadiazol-2-yl)pyridin-3-yl)phenyl (cyclohexylmethyl)carbamate], the IC50 was 10 to 100 nM on human recombinant FAAH and more than 10000 nM at human recombinant MAGL.

With `O=C(NCc1ccccc1)Oc1cccc(-c2cncc(-c3nncs3)c2)c1` [Example 209, 3-(5-(1,3,4-thiadiazol-2-yl)pyridin-3-yl)phenyl benzylcarbamate], the IC50 was approximately 100 nM at human recombinant FAAH and more than 10000 nM on human recombinant MAGL.

With `O=C(NC1CCCC1)Oc1cccc(-c2cncc(-c3nncs3)c2)c1` [Example 210, 3-(5-(1,3,4-thiadiazol-2-yl)pyridin-3-yl)phenyl cyclopentylcarbamate], the IC50 on human recombinant FAAH is approximately 100 nM; on human recombinant MAGL, more than 10000 nM.

As for `O=C(NC1CCCCC1)Oc1cccc(-c2cncc(-c3nncs3)c2)c1` [Example 211, 3-(5-(1,3,4-thiadiazol-2-yl)pyridin-3-yl)phenyl cyclohexylcarbamate], the results for the IC50 at human recombinant FAAH and on human recombinant MAGL were more than 1000 nM and more than 10000 nM, respectively.

As for `O=C(NC1CCCCCC1)Oc1cccc(-c2cncc(-c3nncs3)c2)c1` [Example 212, 3-(5-(1,3,4-thiadiazol-2-yl)pyridin-3-yl)phenyl cycloheptylcarbamate], the IC50 at human recombinant FAAH was 10 to 100 nM; at human recombinant MAGL, more than 10000 nM.

Take `CCCCCCCCNC(=O)Oc1ccc(OC)c(-c2cncc(-c3nncs3)c2)c1` [Example 213, 3-(5-(1,3,4-thiadiazol-2-yl)pyridin-3-yl)-4-methoxyphenyl octylcarbamate]: the figures for the IC50 on human recombinant FAAH and at human recombinant MAGL were 1 to 10 nM and approximately 10000 nM, respectively.

As for `COc1ccc(OC(=O)NCC2CCCCC2)cc1-c1cncc(-c2nncs2)c1` [Example 214, 3-(5-(1,3,4-thiadiazol-2-yl)pyridin-3-yl)-4-methoxyphenyl (cyclohexylmethyl)carbamate], the results for the IC50 at human recombinant FAAH and at human recombinant MAGL were 10 to 100 nM and more than 10000 nM, respectively.

`COc1ccc(OC(=O)NCc2ccccc2)cc1-c1cncc(-c2nncs2)c1` [Example 215, 3-(5-(1,3,4-thiadiazol-2-yl)pyridin-3-yl)-4-methoxyphenyl benzylcarbamate]: the IC50 on human recombinant FAAH is 100 to 1000 nM; at human recombinant MAGL, more than 10000 nM.

(Values after US20250129027A1 (APOGEE PHARMACEUTICALS, INC., priority 2023, published 2025).)
